{"source": "paper PMC11864979", "about": "“First-in-class ultralong-target-residence-time p38α inhibitors as a mitosis-targeted therapy for colorectal cancer” (Nature Cancer, 2025)", "assay_in_all_cases": "selectivity profiling in a panel of 340 wild-type kinases (Reaction Biology Europe)", "format_in_all_cases": "binding", "key": {"340 wild-type kinases [1]": {"biological_target": "T1, 340 wild-type kinases (Homo sapiens, UniProt O15530)", "T1 construct": "purchased Reaction Biology Europe", "T1 sequence (O15530 1-556)": "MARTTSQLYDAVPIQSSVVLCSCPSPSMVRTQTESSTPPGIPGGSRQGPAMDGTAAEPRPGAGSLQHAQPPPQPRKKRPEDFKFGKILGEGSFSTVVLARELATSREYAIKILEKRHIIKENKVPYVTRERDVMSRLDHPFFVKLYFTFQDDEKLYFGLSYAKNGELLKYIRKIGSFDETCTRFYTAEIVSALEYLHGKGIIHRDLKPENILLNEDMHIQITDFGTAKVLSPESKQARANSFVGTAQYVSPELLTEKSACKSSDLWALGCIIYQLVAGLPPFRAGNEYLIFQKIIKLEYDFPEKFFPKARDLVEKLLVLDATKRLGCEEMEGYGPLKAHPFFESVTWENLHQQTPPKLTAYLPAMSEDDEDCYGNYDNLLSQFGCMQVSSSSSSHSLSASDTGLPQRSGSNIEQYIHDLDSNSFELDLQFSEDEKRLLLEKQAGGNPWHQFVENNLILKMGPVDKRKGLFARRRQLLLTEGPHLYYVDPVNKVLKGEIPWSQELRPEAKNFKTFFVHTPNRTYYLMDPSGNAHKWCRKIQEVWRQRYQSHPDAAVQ"}, "340 wild-type kinases [2]": {"biological_target": "T2, 340 wild-type kinases (Homo sapiens, UniProt O14733)", "T2 construct": "purchased Reaction Biology Europe", "T2 sequence (O14733 1-419)": "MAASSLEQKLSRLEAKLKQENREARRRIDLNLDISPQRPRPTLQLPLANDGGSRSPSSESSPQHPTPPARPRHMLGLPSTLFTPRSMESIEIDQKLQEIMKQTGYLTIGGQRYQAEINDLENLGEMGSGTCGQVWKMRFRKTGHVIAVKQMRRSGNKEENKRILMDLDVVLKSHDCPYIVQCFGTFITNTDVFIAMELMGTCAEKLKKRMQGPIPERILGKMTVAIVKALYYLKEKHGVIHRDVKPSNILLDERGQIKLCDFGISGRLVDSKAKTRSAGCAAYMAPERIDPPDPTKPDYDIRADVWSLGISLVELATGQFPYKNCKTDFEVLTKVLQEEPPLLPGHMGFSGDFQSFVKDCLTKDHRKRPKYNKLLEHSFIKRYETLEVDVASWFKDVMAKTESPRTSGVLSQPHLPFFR"}, "340 wild-type kinases [3]": {"biological_target": "T3, 340 wild-type kinases (Homo sapiens, UniProt Q13976)", "T3 construct": "purchased Reaction Biology Europe", "T3 sequence (Q13976 1-671)": "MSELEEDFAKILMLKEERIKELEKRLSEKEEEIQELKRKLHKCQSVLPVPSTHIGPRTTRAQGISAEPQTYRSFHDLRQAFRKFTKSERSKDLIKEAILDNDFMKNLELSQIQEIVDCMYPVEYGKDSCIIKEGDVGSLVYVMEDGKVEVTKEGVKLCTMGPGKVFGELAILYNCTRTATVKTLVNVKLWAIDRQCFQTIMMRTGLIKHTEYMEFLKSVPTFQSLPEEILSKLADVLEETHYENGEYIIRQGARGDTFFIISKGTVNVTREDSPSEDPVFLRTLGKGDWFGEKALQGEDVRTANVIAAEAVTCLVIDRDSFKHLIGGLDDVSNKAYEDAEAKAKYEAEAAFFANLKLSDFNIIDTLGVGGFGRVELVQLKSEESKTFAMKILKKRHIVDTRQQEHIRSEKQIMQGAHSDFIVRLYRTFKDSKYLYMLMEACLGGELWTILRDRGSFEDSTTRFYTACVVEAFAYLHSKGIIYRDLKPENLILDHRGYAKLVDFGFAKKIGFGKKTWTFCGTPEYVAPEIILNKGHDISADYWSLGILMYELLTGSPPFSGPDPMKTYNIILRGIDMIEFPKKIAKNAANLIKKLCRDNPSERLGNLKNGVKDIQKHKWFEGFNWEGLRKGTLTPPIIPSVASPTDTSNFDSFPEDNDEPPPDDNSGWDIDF"}, "340 wild-type kinases [4]": {"biological_target": "T4, 340 wild-type kinases (Homo sapiens, UniProt P24941)", "T4 construct": "purchased Reaction Biology Europe"}}, "note": "Read-outs that look alike come from different tables or passages of the source.", "data": [{"smiles": "CNC(=O)c1ccc2c(c1)C(=O)c1ccc(Nc3ccc(F)c(NC(=O)C4CC4)c3)cc1CC2", "note": "[Compound 2015]", "values": [{"measurement": "remaining activity at 0.2 µM", "setting": "340 wild-type kinases [1]; 0.2 µM 2015, read-out: PDK1 residual activity", "value": 107, "unit": "%"}, {"measurement": "remaining activity at 1 µM", "setting": "340 wild-type kinases [1]; 1 µM 2015, read-out: PDK1 residual activity", "value": 93.7, "unit": "%"}, {"measurement": "remaining activity at 0.2 µM", "setting": "340 wild-type kinases [1]; PDK1, 0.2 µM, read-out: residual activity", "value": 107, "unit": "%"}, {"measurement": "remaining activity at 1 µM", "setting": "340 wild-type kinases [1]; PDK1, 1 µM, read-out: residual activity", "value": 93.7, "unit": "%"}, {"measurement": "remaining activity at 0.2 µM", "setting": "340 wild-type kinases [2]; 0.2 µM 2015, read-out: MKK7 residual activity", "value": 102, "unit": "%"}, {"measurement": "remaining activity at 1 µM", "setting": "340 wild-type kinases [2]; 1 µM 2015, read-out: MKK7 residual activity", "value": 117, "unit": "%"}, {"measurement": "remaining activity at 0.2 µM", "setting": "340 wild-type kinases [2]; MKK7, 0.2 µM, read-out: residual activity", "value": 102, "unit": "%"}, {"measurement": "remaining activity at 1 µM", "setting": "340 wild-type kinases [2]; MKK7, 1 µM, read-out: residual activity", "value": 117, "unit": "%"}, {"measurement": "remaining activity at 0.2 µM", "setting": "340 wild-type kinases [3]; 0.2 µM 2015, read-out: PRKG1 residual activity", "value": 106, "unit": "%"}, {"measurement": "remaining activity at 1 µM", "setting": "340 wild-type kinases [3]; 1 µM 2015, read-out: PRKG1 residual activity", "value": 104, "unit": "%"}, {"measurement": "remaining activity at 0.2 µM", "setting": "340 wild-type kinases [3]; PRKG1, 0.2 µM, read-out: residual activity", "value": 106, "unit": "%"}, {"measurement": "remaining activity at 1 µM", "setting": "340 wild-type kinases [3]; PRKG1, 1 µM, read-out: residual activity", "value": 104, "unit": "%"}, {"measurement": "remaining activity at 0.2 µM", "setting": "340 wild-type kinases [4]; 0.2 µM 2015, read-out: CDK2/CycA2 residual activity", "value": 92.5, "unit": "%"}, {"measurement": "remaining activity at 0.2 µM", "setting": "340 wild-type kinases [4]; 0.2 µM 2015, read-out: CDK2/CycD1 residual activity", "value": 90.3, "unit": "%"}, {"measurement": "remaining activity at 0.2 µM", "setting": "340 wild-type kinases [4]; 0.2 µM 2015, read-out: CDK2/CycE1 residual activity", "value": 121, "unit": "%"}, {"measurement": "remaining activity at 1 µM", "setting": "340 wild-type kinases [4]; 1 µM 2015, read-out: CDK2/CycA2 residual activity", "value": 87.2, "unit": "%"}, {"measurement": "remaining activity at 1 µM", "setting": "340 wild-type kinases [4]; 1 µM 2015, read-out: CDK2/CycD1 residual activity", "value": 96.5, "unit": "%"}, {"measurement": "remaining activity at 1 µM", "setting": "340 wild-type kinases [4]; 1 µM 2015, read-out: CDK2/CycE1 residual activity", "value": 109, "unit": "%"}, {"measurement": "remaining activity at 0.2 µM", "setting": "340 wild-type kinases [4]; CDK2/CycA2, 0.2 µM, read-out: residual activity", "value": 92.5, "unit": "%"}, {"measurement": "remaining activity at 1 µM", "setting": "340 wild-type kinases [4]; CDK2/CycA2, 1 µM, read-out: residual activity", "value": 87.2, "unit": "%"}, {"measurement": "remaining activity at 0.2 µM", "setting": "340 wild-type kinases [4]; CDK2/CycD1, 0.2 µM, read-out: residual activity", "value": 90.3, "unit": "%"}, {"measurement": "remaining activity at 1 µM", "setting": "340 wild-type kinases [4]; CDK2/CycD1, 1 µM, read-out: residual activity", "value": 96.5, "unit": "%"}, {"measurement": "remaining activity at 0.2 µM", "setting": "340 wild-type kinases [4]; CDK2/CycE1, 0.2 µM, read-out: residual activity", "value": 121, "unit": "%"}, {"measurement": "remaining activity at 1 µM", "setting": "340 wild-type kinases [4]; CDK2/CycE1, 1 µM, read-out: residual activity", "value": 109, "unit": "%"}]}]}
